≈ marks a conversion by molar mass, not a printed value. Where “and” joins values, the source holds several entries; their conditions need not be identical. Equal entries are not always repeated. Values belong to the compound of their own block, whether it stands above or below them.
Assays:
Experiment in all cases: ≥ marks a high value that may be exact or a test limit, other limits are often not marked, values filed in µg/mL are converted to µM
[1] = test system: Franconibacter helveticus DSM 18390
[2] = test system: Escherichia coli DSM 1116
[3] = test system: Staphylococcus xylosus DSM 20267
[4] = test system: Candida albicans NBRC 1385
[5] = test system: Porphyromonas gingivalis ATCC 33277
[6] = test system: Streptococcus mutans JCM 5705
[7] = test system: Cutibacterium acnes JCM 6473
[8] = test system: Staphylococcus epidermidis
[9] = test system: Staphylococcus aureus ATCC 29213
[10] = test system: Staphylococcus aureus FDA486
[11] = test system: Escherichia coli MG1655
[12] = test system: Escherichia coli BL21
[13] = test system: Staphylococcus aureus
[14] = test system: Staphylococcus aureus FusA88700
[15] = test system: Staphylococcus aureus ATCC 6538
[16] = test system: Candida albicans ATCC 10231
[17] = test system: Pseudomonas aeruginosa ATCC 15442
[18] = test system: Staphylococcus hominis ATCC 27844
[19] = test system: Enterococcus faecalis ATCC 2912
[20] = test system: Escherichia coli ATCC 25922
[21] = test system: Staphylococcus aureus NCTC 12493
[22] = test system: Candida albicans NCTC 1467
[23] = test system: Klebsiella pneumoniae ATCC 43816
[24] = test system: Pseudomonas aeruginosa ATCC 27853
[25] = test system: Escherichia coli NCTC 10418
[26] = test system: Enterococcus faecalis NCTC 12697
[27] = test system: Staphylococcus aureus NCTC 10788
[28] = test system: Escherichia coli BL21AI
[29] = test system: Micrococcus luteus DSM 1790
[30] = test system: Staphylococcus aureus CECT 435
[31] = test system: Streptococcus agalactiae CECT 183T
[32] = test system: Enterococcus faecalis CECT 481
[33] = test system: Staphylococcus aureus MR

Structure (SMILES): CC(C)C[C@H](NC(=O)[C@H](CCCCN)NC(=O)[C@H](CC(C)C)NC(=O)[C@H](CCCCN)NC(=O)[C@H](CC(C)C)NC(=O)[C@H](CCCCN)NC(=O)[C@H](CC(C)C)NC(=O)[C@H](CCCCN)NC(=O)[C@H](CC(C)C)NC(=O)[C@@H](N)CCCCN)C(N)=O [KLKLKLKLKL]
MIC [1]: 3.27 µM and 1.63 µM | MIC [2]: 6.53 µM and 3.27 µM | MIC [3]: 1.63 µM (≈ 2 µg/mL)

Structure (SMILES): CC[C@H](C)[C@H](NC(=O)[C@H](CCCN=C(N)N)NC(=O)CNC(=O)[C@H](Cc1ccc(O)cc1)NC(=O)[C@H](CCC(N)=O)NC(=O)[C@H](CC(N)=O)NC(=O)[C@@H](N)CCCCN)C(=O)N[C@@H](CCCN=C(N)N)C(=O)N[C@H](C(=O)N[C@@H](CC(C)C)C(=O)N[C@@H](CCC(N)=O)C(=O)N[C@@H](CCCN=C(N)N)C(=O)N[C@@H](Cc1ccccc1)C(=O)N[C@@H](CC(N)=O)C(=O)N[C@@H](CCC(N)=O)C(=O)N[C@@H](CCCN=C(N)N)C(=O)O)C(C)C [KNQYGRIRVLQRFNQR]
MIC [4]: ≥ 1020 µM | MIC [5]: ≥ 1020 µM | MIC [6]: ≥ 1020 µM | MIC [7]: ≥ 1020 µM

Structure (SMILES): CC[C@H](C)[C@H](NC(=O)[C@H](CCCCN)NC(=O)[C@H](CCCN=C(N)N)NC(=O)[C@H](CCCCN)NC(=O)[C@H](CCCCN)NC(=O)[C@H](CCCCN)NC(=O)[C@H](Cc1c[nH]c2ccccc12)NC(=O)[C@H](CCCCN)NC(=O)[C@@H](NC(=O)[C@H](CC(C)C)NC(=O)[C@H](Cc1c[nH]c2ccccc12)NC(=O)[C@H](CCCN=C(N)N)NC(=O)[C@H](CC(=O)O)NC(=O)[C@H](CCSC)NC(C)=O)C(C)C)C(=O)N[C@@H](CCCN=C(N)N)C(=O)N[C@@H](CCCN=C(N)N)C(=O)N[C@@H](CCCN=C(N)N)C(=O)N[C@@H](CCCN=C(N)N)C(=O)N[C@@H](CCCN=C(N)N)C(=O)N[C@@H](CCCN=C(N)N)C(=O)N[C@@H](CCCN=C(N)N)C(=O)N[C@@H](CCCN=C(N)N)C(=O)N[C@@H](CCCN=C(N)N)C(=O)N[C@@H](CCCN=C(N)N)C(=O)N[C@@H](CCCN=C(N)N)C(N)=O [MDRWLVKWKKKRKIRRRRRRRRRRR]
MIC [8]: 3 µM (≈ 11 µg/mL) | MIC [9]: 3 µM (≈ 11 µg/mL) | MIC [10]: 3 µM (≈ 11 µg/mL) | MIC [11]: 11 µM (≈ 40.4 µg/mL) | MIC [12]: 5 µM (≈ 18.4 µg/mL) | MIC [13]: 3 µM (≈ 11 µg/mL) | MIC [14]: 3 µM (≈ 11 µg/mL)

Structure (SMILES): CSCC[C@H](NC(=O)[C@H](CCCN=C(N)N)NC(=O)[C@H](CO)NC(=O)CNC(=O)[C@H](CCCCN)NC(=O)[C@@H](N)CCCN=C(N)N)C(=O)NCC(=O)N[C@@H](CCCCN)C(=O)N[C@@H](CCCCN)C(=O)N[C@@H](CS)C(=O)N[C@@H](CCC(=O)O)C(=O)N[C@@H](CS)C(=O)N1CCC[C@H]1C(=O)O [RKGSRMGKKCECP]
MIC [15]: > 40 µM | MIC [16]: 13.5 µM (≈ 20 µg/mL) | MIC [17]: 2.1 µM (≈ 3.11 µg/mL) | MIC [18]: 8.3 µM (≈ 12.3 µg/mL) | MIC [19]: 8.3 µM (≈ 12.3 µg/mL) | MIC [20]: 2.1 µM (≈ 3.11 µg/mL)

Results, then the compound that gave them:

MIC [21]: ≥ 32 µM | MIC [22]: ≥ 64 µM | MIC [23]: ≥ 32 µM | MIC [24]: 64 µM (≈ 174 µg/mL) | MIC [25]: 8 µM (≈ 21.8 µg/mL) | MIC [26]: ≥ 32 µM | MIC [27]: 8 µM (≈ 21.8 µg/mL)
Structure (SMILES): CSCC[C@H](NC(=O)[C@H](CCC(=O)O)NC(=O)[C@H](CCCCN)NC(=O)[C@H](CC(C)C)NC(=O)[C@H](CCCCN)NC(=O)CNC(=O)[C@H](Cc1c[nH]c2ccccc12)NC(=O)[C@H](CC(C)C)NC(=O)[C@@H](N)CO)C(=O)N[C@@H](C)C(=O)N[C@@H](C)C(=O)N[C@@H](C)C(=O)N[C@@H](C)C(=O)NCC(=O)N[C@@H](CCCCN)C(=O)N[C@@H](C)C(=O)N[C@@H](C)C(=O)N[C@@H](CC(C)C)C(=O)N[C@@H](CC(N)=O)C(=O)N[C@@H](C)C(=O)N[C@H](C(=O)N[C@@H](CC(N)=O)C(=O)NCC(=O)N[C@@H](CC(C)C)C(=O)N[C@H](C(=O)N[C@@H](CC(N)=O)C(=O)N[C@@H](CCC(N)=O)C(N)=O)C(C)C)C(C)C [SLWGKLKEMAAAAGKAALNAVNGLVNQ]

MIC [28]: ≥ 57.5 µM | MIC [29]: 28.7 µM (≈ 62.5 µg/mL)
Structure (SMILES): CC[C@H](C)[C@H](NC(=O)[C@H](CCCN=C(N)N)NC(=O)[C@H](CCCN=C(N)N)NC(=O)[C@@H]1CCCN1C(=O)[C@@H]1CCCN1C(=O)[C@@H]1CCCN1C(=O)[C@@H]1CCCN1C(=O)[C@H](CCCN=C(N)N)NC(=O)[C@@H]1CCCN1C(=O)[C@H](CC(C)C)NC(=O)[C@H](Cc1ccc(O)cc1)NC(=O)[C@@H]1CCCN1C(=O)[C@@H]1CCCN1C(=O)[C@H](CCCCN)NC(=O)[C@H](CC(=O)O)NC(=O)[C@@H](N)C(C)C)C(=O)N[C@@H](Cc1ccc(O)cc1)C(=O)N[C@@H](CC(N)=O)C(=O)O [VDKPPYLPRPPPPRRIYN]

MIC [30]: ≥ 47.5 µM | MIC [31]: ≥ 95.1 µM | MIC [32]: ≥ 47.5 µM | MIC [33]: ≥ 47.5 µM
Structure (SMILES): CC[C@H](C)[C@H](NC(=O)[C@H](CC(C)C)NC(=O)[C@@H](NC(=O)[C@@H](NC(=O)[C@@H]1CCCN1C(=O)[C@H](CS)NC(=O)[C@H](CO)NC(=O)CNC(=O)[C@@H]1CCCN1C(=O)[C@H](CCCCN)NC(=O)[C@@H](NC(=O)[C@H](CO)NC(=O)[C@@H](NC(=O)[C@@H]1CCCN1C(=O)CNC(=O)[C@H](CCCCN)NC(=O)[C@@H](NC(=O)[C@@H]1CCCN1C(=O)[C@H](CCC(=O)O)NC(=O)[C@H](CCC(N)=O)NC(=O)[C@H](C)NC(=O)[C@H](CCCCN)NC(=O)[C@@H](N)C(C)C)C(C)C)C(C)C)[C@@H](C)O)[C@@H](C)CC)[C@@H](C)CC)C(=O)N[C@@H](CCCN=C(N)N)C(=O)N[C@@H](CS)C(=O)N[C@@H](C)C(=O)O [VKAQEPVKGPVSTKPGSCPIILIRCA]

Source: DBAASP
